From PMC8067737, “Synthesis and Biological Evaluation of Coumarin-Linked 4-Anilinomethyl-1,2,3-Triazoles as Potent Inhibitors of Carbonic Anhydrases IX and XIII Involved in Tumorigenesis” (Metabolites, 2021) come the findings set out here.

Read-outs that look alike come from different tables or passages of the source.

The target in one data set is hCA II (Homo sapiens, UniProt P00918). The data set is described as follows: CA catalyzed CO2 hydration, stopped flow assay, hCA II.
The target of another data set is hCA I (Homo sapiens, UniProt P00915). The data set is described as follows: CA catalyzed CO2 hydration, stopped flow assay, hCA I.
Sequence of hCA I (P00915 whole entry): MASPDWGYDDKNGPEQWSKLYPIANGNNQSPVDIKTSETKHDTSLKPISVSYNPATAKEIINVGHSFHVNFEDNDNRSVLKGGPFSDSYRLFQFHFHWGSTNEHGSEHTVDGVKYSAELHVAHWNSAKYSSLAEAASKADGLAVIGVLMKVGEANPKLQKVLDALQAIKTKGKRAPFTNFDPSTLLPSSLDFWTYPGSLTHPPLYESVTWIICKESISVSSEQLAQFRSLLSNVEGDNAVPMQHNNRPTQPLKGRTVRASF
The next data set has as its target hCA IX (Homo sapiens, UniProt Q16790). Description: CA catalyzed CO2 hydration, stopped flow assay, hCA IX. As to conditions: recombinant enzyme, stopped flow technique, mean from 3 different assays, errors ±5–10%.
The next data set concerns the target hCA XIII (Homo sapiens, UniProt Q8N1Q1). The data set is described as follows: CA catalyzed CO2 hydration, stopped flow assay, hCA XIII. The conditions noted are these: Ki (nM) hCA XIII, recombinant enzyme; stopped flow technique; mean from 3 different assays, errors ±5–10%.

Sequence of hCA XIII (Q8N1Q1 whole entry): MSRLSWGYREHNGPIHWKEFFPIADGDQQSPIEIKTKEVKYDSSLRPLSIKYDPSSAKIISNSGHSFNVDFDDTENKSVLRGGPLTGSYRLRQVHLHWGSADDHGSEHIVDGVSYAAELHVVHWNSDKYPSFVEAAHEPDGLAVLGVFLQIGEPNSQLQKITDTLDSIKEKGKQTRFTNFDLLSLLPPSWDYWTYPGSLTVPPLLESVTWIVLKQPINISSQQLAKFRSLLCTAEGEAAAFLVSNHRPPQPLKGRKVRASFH
Source text for hCA II: (§1) An SX.18V-R Applied Photophysics (Oxford, UK) stopped flow instrument has been used to assay the CA catalyzed CO2 hydration activity [26]. […] The inhibition constants were obtained by non-linear least squares methods using the Cheng-Prusoff equation, as reported earlier, and represent the mean from at least three different determinations.
Source text for hCA IX: as §1
Source text for hCA XIII: as §1

As usually defined, the Ki is a measure of affinity in units of concentration, obtained from inhibition or displacement. As usually defined, the melting point is the temperature, or range, at which the solid turns liquid. As to `O=c1ccc2cc(-n3cc(CNc4ccc(F)cc4)nn3)ccc2o1` [Compound 6l, 6-(4-(((4-fluorophenyl)amino)methyl)-1H-1,2,3-triazol-1-yl)-2H-chromen-2-one], the melting point is 210 to 212 °C. Further, at hCA II, the inhibitory constant (Ki) is > 50 µM. Besides, at hCA I, the inhibition constant (Ki) was > 50 µM. Besides, the Ki at hCA IX (Ki (nM) hCA IX) was found to be 86.1 nM. The Ki on hCA XIII came to 840 nM.

As to `O=c1ccc2cc(-n3cc(CNc4ccc(Br)cc4)nn3)ccc2o1` [Compound 6e, 6-(4-(((4-bromophenyl)amino)methyl)-1H-1,2,3-triazol-1-yl)-2H-chromen-2-one], the inhibition constant Ki was > 50 µM at hCA II; > 50 µM at hCA I; < 50 nM on hCA IX (Ki (nM) hCA IX); 36.3 nM at hCA IX (read-out: Ki (nM) hCA IX); 883 nM at hCA XIII.

Consider `Cc1cccc(NCc2cn(-c3ccc4oc(=O)ccc4c3)nn2)c1C` [Compound 6r, 6-(4-(((2,3-dimethylphenyl)amino)methyl)-1H-1,2,3-triazol-1-yl)-2H-chromen-2-one], for which the melting point fell in the range of 220 to 222 °C. At hCA II, the inhibition constant Ki is > 50 µM. The inhibition constant Ki on hCA I is > 50 µM. In addition, the inhibitory constant (Ki) on hCA IX (Ki (nM) hCA IX) is 462 nM. For the same molecule, on hCA XIII, the inhibitory constant (Ki) was found to be 550 nM.

The molecule `O=c1ccc2cc(-n3cc(CNc4ccc(Cl)cc4)nn3)ccc2o1` [Compound 6d, 6-(4-(((4-chlorophenyl)amino)methyl)-1H-1,2,3-triazol-1-yl)-2H-chromen-2-one] displayed a melting point of 136 to 138 °C. Besides, the inhibitory constant (Ki) on hCA II was > 50 µM. In addition, at hCA I, the inhibition constant (Ki) is > 50 µM. In addition, at hCA IX (Ki (nM) hCA IX), the Ki turned out to be 152 nM. For the same molecule, the Ki on hCA XIII is 898 nM.

Take `O=c1ccc2cc(-n3cc(CNc4ccccc4)nn3)ccc2o1` [Compound 6b, 6-(4-((phenylamino)methyl)-1H-1,2,3-triazol-1-yl)-2H-chromen-2-one]: the melting point lay within 159 to 161 °C. On hCA II, the Ki is > 50 µM. The Ki on hCA I is > 50 µM. Besides, the inhibition constant (Ki) on hCA IX (Ki (nM) hCA IX) is 60.8 nM. The Ki on hCA XIII came out at 90.1 nM.

For the molecule `O=c1ccc2cc(-n3cc(CNc4cccc(C(F)(F)F)c4)nn3)ccc2o1` [Compound 6k], the melting point was in the range of 246 to 248 °C. Also, on hCA II, the Ki is > 50 µM. In addition, the Ki on hCA I was > 50 µM. In addition, the Ki on hCA IX (Ki (nM) hCA IX) worked out at 69.1 nM. The inhibitory constant (Ki) at hCA XIII stood at 6430 nM.

On to `Cc1cccc(NCc2cn(-c3ccc4oc(=O)ccc4c3)nn2)c1` [Compound 6m, 6-(4-((m-tolylamino)methyl)-1H-1,2,3-triazol-1-yl)-2H-chromen-2-one], for which the melting point was 220 to 223 °C. On hCA II, the inhibition constant (Ki) is > 50 µM. For the same molecule, the inhibitory constant (Ki) on hCA I is > 50 µM. In addition, the inhibitory constant (Ki) on hCA IX (Ki (nM) hCA IX) was found to be 80.1 nM. Moreover, the inhibition constant (Ki) on hCA XIII turned out to be 795 nM.

For `O=c1ccc2cc(-n3cc(CNc4ccc(Cl)cc4[N+](=O)[O-])nn3)ccc2o1` [Compound 6q, 6-(4-(((4-chloro-2-nitrophenyl)amino)methyl)-1H-1,2,3-triazol-1-yl)-2H-chromen-2-one], the melting point was 213 to 215 °C. In addition, the Ki at hCA II is > 50 µM. Besides, at hCA I, the Ki was > 50 µM. Moreover, at hCA IX (Ki (nM) hCA IX), the inhibition constant (Ki) is 96.4 nM. Besides, the inhibition constant Ki at hCA XIII came to 96.7 nM.

The molecule `O=c1ccc2cc(-n3cc(CNc4cccc(Cl)c4)nn3)ccc2o1` [Compound 6o, 6-(4-(((3-chlorophenyl)amino)methyl)-1H-1,2,3-triazol-1-yl)-2H-chromen-2-one] yielded a melting point of 134 to 137 °C. The Ki at hCA II was > 50 µM. For the same molecule, the Ki on hCA I was > 50 µM. For the same molecule, at hCA IX (Ki (nM) hCA IX), the Ki is 92.7 nM. For the same molecule, the inhibitory constant (Ki) at hCA XIII came to 95.4 nM.

For the molecule `O=c1ccc2cc(-n3cc(CNc4cc(F)cc(F)c4)nn3)ccc2o1` [Compound 6s, 6-(4-(((3,5-difluorophenyl)amino)methyl)-1H-1,2,3-triazol-1-yl)-2H-chromen-2-one], the melting point was 204 to 206 °C. The inhibition constant (Ki) on hCA II is > 50 µM. The Ki at hCA I was > 50 µM. For the same molecule, on hCA IX (Ki (nM) hCA IX), the Ki turned out to be 90.9 nM. In addition, the inhibitory constant (Ki) at hCA XIII is 664 nM.

The molecule `O=c1ccc2cc(-n3cc(CNc4cccc([N+](=O)[O-])c4)nn3)ccc2o1` [Compound 6i, 6-(4-(((3-nitrophenyl)amino)methyl)-1H-1,2,3-triazol-1-yl)-2H-chromen-2-one] displayed a melting point of 230 to 234 °C. For the same molecule, the inhibition constant (Ki) on hCA II is > 50 µM. Also, on hCA I, the Ki is > 50 µM. Besides, the inhibition constant (Ki) at hCA IX (Ki (nM) hCA IX) came to 85.7 nM. For the same molecule, the Ki on hCA XIII turned out to be 896 nM.

The molecule `Cc1cc(C)cc(NCc2cn(-c3ccc4oc(=O)ccc4c3)nn2)c1` [Compound 6n, 6-(4-(((3,5-dimethylphenyl)amino)methyl)-1H-1,2,3-triazol-1-yl)-2H-chromen-2-one] had a melting point of 191 to 194 °C. Further, on hCA II, the inhibitory constant (Ki) was > 50 µM. On hCA I, the Ki is > 50 µM. Also, on hCA IX (Ki (nM) hCA IX), the Ki worked out at 89.3 nM. Moreover, at hCA XIII, the Ki was found to be 703 nM.

For `O=c1ccc2cc(-n3cc(CNc4cccc(Br)c4)nn3)ccc2o1` [Compound 6j, 6-(4-(((3-bromophenyl)amino)methyl)-1H-1,2,3-triazol-1-yl)-2H-chromen-2-one], the melting point lay in the range of 133 to 136 °C. The Ki on hCA II is > 50 µM. Also, the Ki on hCA I is > 50 µM. Besides, the Ki at hCA IX (Ki (nM) hCA IX) was determined as 305 nM. At hCA XIII, the Ki is 91.8 nM.

Molecule `CC(C)c1ccc(NCc2cn(-c3ccc4oc(=O)ccc4c3)nn2)cc1` [Compound 6f, 6-(4-(((4-isopropylphenyl)amino)methyl)-1H-1,2,3-triazol-1-yl)-2H-chromen-2-one] returned a melting point of 152 to 155 °C. Also, on hCA II, the inhibitory constant (Ki) is > 50 µM. The Ki at hCA I was > 50 µM. For the same molecule, the inhibition constant Ki on hCA IX (Ki (nM) hCA IX) amounted to 45 nM. The inhibitory constant (Ki) on hCA XIII amounted to 8150 nM.

Consider `Cc1cc(C)c(NCc2cn(-c3ccc4oc(=O)ccc4c3)nn2)c(C)c1` [Compound 6g, 6-(4-((mesitylamino)methyl)-1H-1,2,3-triazol-1-yl)-2H-chromen-2-one], for which the melting point was in the range of 157 to 159 °C. Also, the inhibition constant Ki at hCA II is > 50 µM. Besides, at hCA I, the Ki was > 50 µM. The Ki on hCA IX (Ki (nM) hCA IX) came out at 64.8 nM. The Ki on hCA XIII is 903 nM.

`COc1ccc(NCc2cn(-c3ccc4oc(=O)ccc4c3)nn2)cc1` [Compound 6c, 6-(4-(((4-methoxyphenyl)amino)methyl)-1H-1,2,3-triazol-1-yl)-2H-chromen-2-one]: the melting point lay in the range of 140 to 142 °C. Further, the inhibitory constant (Ki) on hCA II was > 50 µM. For the same molecule, the Ki on hCA I was > 50 µM. Also, the inhibitory constant (Ki) on hCA IX (Ki (nM) hCA IX) turned out to be 73.3 nM. For the same molecule, the inhibition constant Ki on hCA XIII stood at 950 nM.

`O=c1ccc2cc(-n3cc(CNc4ccc(Oc5ccccc5)cc4)nn3)ccc2o1` [Compound 6h, 6-(4-(((4-phenoxyphenyl)amino)methyl)-1H-1,2,3-triazol-1-yl)-2H-chromen-2-one] came in with a melting point of 172 to 174 °C. The Ki on hCA II was > 50 µM. Further, the Ki at hCA I is > 50 µM. In addition, the inhibition constant (Ki) on hCA IX (Ki (nM) hCA IX) turned out to be 73 nM. For the same molecule, the Ki at hCA XIII was determined as 905 nM.

For the molecule `O=c1ccc2cc(-n3cc(CNc4ccccc4F)nn3)ccc2o1` [Compound 6t, 6-(4-(((2-fluorophenyl)amino)methyl)-1H-1,2,3-triazol-1-yl)-2H-chromen-2-one], the melting point is 230 to 232 °C. Besides, on hCA II, the Ki was > 50 µM. Also, on hCA I, the inhibitory constant (Ki) was > 50 µM. The inhibition constant (Ki) on hCA IX (Ki (nM) hCA IX) is 643 nM. For the same molecule, the Ki at hCA XIII worked out at 6030 nM.

In turn, `Cc1ccc(NCc2cn(-c3ccc4oc(=O)ccc4c3)nn2)cc1` [Compound 6a, 6-(4-((p-tolylamino)methyl)-1H-1,2,3-triazol-1-yl)-2H-chromen-2-one] registered a melting point of 150 to 152 °C. Also, on hCA II, the inhibition constant Ki is > 50 µM. Also, the Ki on hCA I is > 50 µM. In addition, the Ki on hCA IX (Ki (nM) hCA IX) came to 48.4 nM. Further, the Ki on hCA XIII came to 92.6 nM.

As for `O=c1ccc2cc(-n3cc(CNc4ccccc4I)nn3)ccc2o1` [Compound 6p, 6-(4-(((2-iodophenyl)amino)methyl)-1H-1,2,3-triazol-1-yl)-2H-chromen-2-one], the melting point is 165 to 167 °C. The Ki on hCA II was > 50 µM. Further, the inhibition constant Ki at hCA I is > 50 µM. Also, the Ki on hCA IX (Ki (nM) hCA IX) worked out at 574 nM. Besides, the inhibition constant Ki at hCA XIII turned out to be 594 nM.
